Test results reported in patent US12240862B2, “Inhibitors of peptidylarginine deiminases” (Gilead Sciences, Inc., priority 2020, dated 2025).

Each compound was assayed against T1, human PAD4 (Homo sapiens, UniProt Q9UM07) (assay: In vitro PAD4 BAEE biochemical assay). Conditions: human PAD4, BAEE substrate; 5 nM PAD4, 2 mM calcium chloride, 3 mM BAEE; geometric mean of multiple experiments.
T1 construct: human PAD4 (NM_012387), A2P663, was PCR amplified; His-SUMO (N, cleaved yes); made in house; host or cells: E. coli BL21(DE3)
Procedure, shortened: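 Tag-free recombinant hPAD4 (5 nM), 2 mM CaCl2, 3 mM BAEE, 50 mM MOPS pH 7.6, 2 mM DTT; 30 min compound preincubation, 2 h reaction, all 25 °C. EDTA quench; ammonia read via o-phthalaldehyde amine coupling, 1 h.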

T1 sequence (Q9UM07 2-663): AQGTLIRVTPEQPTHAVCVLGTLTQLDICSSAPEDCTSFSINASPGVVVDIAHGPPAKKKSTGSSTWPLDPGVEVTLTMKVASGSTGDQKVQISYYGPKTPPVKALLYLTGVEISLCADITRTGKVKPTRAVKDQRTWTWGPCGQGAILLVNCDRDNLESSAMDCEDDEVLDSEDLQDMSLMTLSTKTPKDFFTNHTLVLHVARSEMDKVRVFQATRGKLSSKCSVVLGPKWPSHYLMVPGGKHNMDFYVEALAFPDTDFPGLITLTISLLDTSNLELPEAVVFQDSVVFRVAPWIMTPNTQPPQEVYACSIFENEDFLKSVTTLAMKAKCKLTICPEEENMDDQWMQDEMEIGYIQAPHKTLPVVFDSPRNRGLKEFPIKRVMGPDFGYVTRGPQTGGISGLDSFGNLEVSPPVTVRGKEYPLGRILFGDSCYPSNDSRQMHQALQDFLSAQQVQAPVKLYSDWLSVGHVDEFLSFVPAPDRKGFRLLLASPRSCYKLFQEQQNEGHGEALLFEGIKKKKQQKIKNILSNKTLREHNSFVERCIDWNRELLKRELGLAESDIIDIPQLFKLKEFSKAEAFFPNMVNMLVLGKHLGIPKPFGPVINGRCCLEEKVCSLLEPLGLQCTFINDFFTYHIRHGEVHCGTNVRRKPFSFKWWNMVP

Structure (SMILES) | IC50 [nM]
COCC1(C(=O)N[C@H](C)c2ccc3cc(-c4nc5cc(C(=O)N6[C@H]7CC[C@@H]6[C@H](N)C7)cc(OC)n5c4C)n(CC4CC4)c3n2)CC1 [Example 68, ~{N}-[(1~{R})-1-[2-[7-[(1~{R},2~{R},4~{S})-2-amino-7-azabicyclo [2.2.1]heptane-7-carbonyl]-5-methoxy-3-methylimidazo [1,2-a]pyridin-2-yl]-1-(cyclopropylmethyl)pyrrolo[2,3-b]pyridin-6-yl]ethyl]-1-(methoxymethyl) cyclopropane-1-carboxamide] | 45.3
COc1cc(C(=O)N2[C@H]3CC[C@@H]2[C@H](N)C3)cc2nc(-c3cc4ccc([C@@H](C)NC(=O)C56CC(C#N)(C5)C6)nc4n3CC3CC3)c(C)n12 [Example 158, ~{N}-[(1~{R})-1-[2-[7-[(1~{R},2~{R},4~{S})-2-amino-7-azabicyclo[2.2.1]heptane-7-carbonyl]-5-methoxy-3-methylimidazo [1,2-a]pyridin-2-yl]-1-(cyclopropylmethyl)pyrrolo [2,3-b]pyridin-6-yl]ethyl]-3-cyanobicyclo[1.1.1]pentane-1-carboxamide] | 73.8
CCC1C(N)C2CCC1N2C(=O)c1cc(OC)n2c(C)c(-c3cc4ccc(N(C(F)F)S(C)(=O)=O)nc4n3CC3CC3)nc2c1 (single isomer, unassigned) [Example 347] | 10100
COc1cc(C(=O)N2[C@H]3CC[C@@H]2[C@H](N)C3)cc2nc(-c3cc4ccc(C(C)(C)N)nc4n3CC3CC3)c(C)n12 [Example 570, [(1~{R},2~{R},4~{S})-2-amino-7-azabicyclo [2.2.1]heptan-7-yl]-[2-[6-(2-aminopropan-2-yl)-1-(cyclopropylmethyl)pyrrolo [2,3-b]pyridin-2-yl]-5-methoxy-3-methylimidazo[1,2-a]pyridin-7-yl]methanone] | 227
COc1cc(C(=O)N2CCC[C@@H](N)C2)cc2nc(-c3cc4ccc([C@@H](C)NS(C)(=O)=O)nc4n3CC3CC3)c(C)n12 [Example 268, ~{N}-[(1~{R})-1-[2-[7-[(3~{R})-3-aminopiperidine-1-carbonyl]-5-methoxy-3-methylimidazo [1,2-a]pyridin-2-yl]-1-(cyclopropylmethyl)pyrrolo [2,3-b]pyridin-6-yl]ethyl]methanesulfonamide] | 257
CCc1ccc2cc(-c3nc4cc(C(=O)N5C[C@@]6(N)CC[C@@H]5C6)cc(OC)n4c3C)n(CC3CC3)c2n1 [Example 588, [(1~{R},4~{R})-4-amino-2-azabicyclo[2.2.1]heptan-2-yl]-[2-[1-(cyclopropylmethyl)-6-ethylpyrrolo[2,3-b]pyridin-2-yl]-5-methoxy-3-methylimidazo[1,2-a]pyridin-7-yl]methanone] | 10600
COc1cc(C(=O)N2[C@H]3CC[C@@H]2[C@H](N)C3)cc2nc(-c3cc4ccc([C@@H](C)NC(=O)C5(COC(F)(F)F)CC5)nc4n3CC3CC3)c(C)n12 [Example 138, ~{N}-[(1~{R})-1-[2-[7-[(1~{R},2~{R},4~{S})-2-amino-7-azabicyclo[2.2.1]heptane-7-carbonyl]-5-methoxy-3-methylimidazo [1,2-a]pyridin-2-yl]-1-(cyclopropylmethyl)pyrrolo [2,3-b]pyridin-6-yl]ethyl]-1-(trifluoromethoxymethyl) cyclopropane-1-carboxamide] | 328
COc1cc(C(=O)N2[C@H]3CC[C@@H]2[C@H](N)C3)cc2nc(-c3cc4ccc([C@@H](C)NC(=O)NC5CC6(CC6)C5)nc4n3CC3CC3)c(C)n12 [Example 204, 1-[(1~{R})-1-[2-[7-[(1~{R},2~{R},4~{S})-2-amino-7-azabicyclo[2.2.1]heptane-7-carbonyl]-5-methoxy-3-methylimidazo [1,2-a]pyridin-2-yl]-1-(cyclopropylmethyl)pyrrolo [2,3-b]pyridin-6-yl]ethyl]-3-spiro[2.3]hexan-5-ylurea] | 30.1
COc1cc(C(=O)N2CC[C@@H](O)[C@@H](N)C2)cc2nc(-c3cc4ccc(N(C(F)F)S(C)(=O)=O)nc4n3CC3CC3)c(C)n12 [Example 348, ~{N}-[2-[7-[(3~{S}, 4~{R})-3-amino-4-hydroxypiperidine-1-carbonyl]-5-methoxy-3-methylimidazo [1,2-a]pyridin-2-yl]-1-(cyclopropylmethyl)pyrrolo[2,3-b]pyridin-6-yl]-~{N}-(difluoromethyl) methanesulfonamide] | 144
COc1cc(C(=O)N2[C@H]3CC[C@@H]2[C@H](N)C3)cc2nc(-c3cc4ccc([C@@H](C)NC(=O)N5CCO[C@@H](C)C5)nc4n3CC3CC3)c(C)n12 [Example 201, (2~{S})-~{N}-[(1~{R})-1-[2-[7-[(1~{R},2~{R},4~{S})-2-amino-7-azabicyclo[2.2.1]heptane-7-carbonyl]-5-methoxy-3-methylimidazo [1,2-a]pyridin-2-yl]-1-(cyclopropylmethyl)pyrrolo [2,3-b]pyridin-6-yl]ethyl]-2-methylmorpholine-4-carboxamide] | 17.4
COc1cc(C(=O)N2[C@H]3CC[C@@H]2[C@H](N)C3)cc2nc(-c3cc4ccc(C(NC(=O)C(C)(C)C)C(F)(F)F)nc4n3CC3CC3)c(C)n12 (some centres unmarked) [Example 192, ~{N}-[1-[2-[7-[(1~{R},2~{R},4~{S})-2-amino-7-azabicyclo[2.2.1]heptane-7-carbonyl]-5-methoxy-3-methylimidazo [1,2-a]pyridin-2-yl]-1-(cyclopropylmethyl)pyrrolo [2,3-b]pyridin-6-yl]-2,2,2-trifluoroethyl]-2,2-dimethylpropanamide] | 689
COc1cc(C(=O)N2[C@H]3CC[C@@H]2[C@H](N)C3)cc2nc(-c3cc4ccc([C@@H](C)NC(=O)C5C(C)(C)C5(F)F)nc4n3CC3CC3)c(C)n12 (some centres unmarked) [Example 103, ~{N}-[(1~{R})-1-[2-[7-[(1~{R},2~{R},4~{S})-2-amino-7-azabicyclo[2.2.1]heptane-7-carbonyl]-5-methoxy-3-methylimidazo [1,2-a]pyridin-2-yl]-1-(cyclopropylmethyl)pyrrolo [2,3-b]pyridin-6-yl]ethyl]-2,2-difluoro-3,3-dimethylcyclopropane-1-carboxamide] | 66.6
COc1cc(C(=O)N2[C@H]3CC[C@@H]2[C@H](N)[C@H](OCC(F)F)C3)cc2nc(-c3cc4ccc([C@@H](C)NC(=O)C56CC(F)(C5)C6)nc4n3CC3CC3)c(C)n12 [Example 18] | 578
COc1cc(C(=O)N2[C@H]3CC[C@@H]2[C@H](N)C3)cc2nc(-c3cc4ccc(N[C@@H](C)C(F)(F)F)nc4n3CC3CC3)c(C)n12 [Example 448, [(1~{R},2~{R},4~{S})-2-amino-7-azabicyclo [2.2.1]heptan-7-yl]-[2-[1-(cyclopropylmethyl)-6-[[(2~{S})-1,1,1-trifluoropropan-2-yl]amino]pyrrolo[2,3-b]pyridin-2-yl]-5-methoxy-3-methylimidazo[1,2-a]pyridin-7-yl]methanone] | 6710
COc1cc(C(=O)N2CCC[C@@H](N)C2)cc2nc(-c3cc4ccc([C@@H](C)NC(=O)c5ccccc5)nc4n3CC3CC3)c(C3CC3)n12 [Example 141, ~{N}-[(1~{R})-1-[2-[7-[(3~{R})-3-aminopiperidine-1-carbonyl]-3-cyclopropyl-5-methoxyimidazo [1,2-a]pyridin-2-yl]-1-(cyclopropylmethyl)pyrrolo [2,3-b]pyridin-6-yl]ethyl] benzamide] | 187
COc1cc(C(=O)N2[C@H]3CC[C@@H]2[C@H](N)C3)cc2nc(-c3cc4ccc(C5CCN(C(=O)N6CCCC6)CC5)nc4n3CC3CC3)c(C)n12 [Example 525, [(1~{R},2~{R},4~{S})-2-amino-7-azabicyclo [2.2.1]heptan-7-yl]-[2-[1-(cyclopropylmethyl)-6-[1-(pyrrolidine-1-carbonyl)piperidin-4-yl]pyrrolo [2,3-b]pyridin-2-yl]-5-methoxy-3-methylimidazo [1,2-a]pyridin-7-yl]methanone] | 228
COc1cc(C(=O)N2[C@H]3CC[C@@H]2[C@H](N)C3)cc2nc(-c3cc4ccc([C@@H](C)NC(=O)c5cccc(C#N)c5)nc4n3CC3CC3)c(C)n12 [Example 122, ~{N}-[(1~{R})-1-[2-[7-[(1~{R},2~{R},4~{S})-2-amino-7-azabicyclo[2.2.1]heptane-7-carbonyl]-5-methoxy-3-methylimidazo [1,2-a]pyridin-2-yl]-1-(cyclopropylmethyl)pyrrolo [2,3-b]pyridin-6-yl]ethyl]-3-cyanobenzamide] | 78.5
CCc1ccc2cc(-c3nc4cc(C(=O)N5[C@H]6CC[C@@H]5[C@H](N)C6)cc(OC)n4c3C)n(CC(F)F)c2n1 [Example 502, [(1~{R},2~{R},4~{S})-2-amino-7-azabicyclo [2.2.1]heptan-7-yl]-[2-[1-(2,2-difluoroethyl)-6-ethylpyrrolo[2,3-b]pyridin-2-yl]-5-methoxy-3-methylimidazo [1,2-a]pyridin-7-yl] methanone] | 258
COc1cc(C(=O)N2CCC[C@@H](N)C2)cc2nc(-c3cc4ccc([C@@H](C)NC(=O)C56CC(F)(C5)C6)nc4n3CC3CC3)c(C3CC3)n12 [Example 145, ~{N}-[(1~{R})-1-[2-[7-[(3~{R})-3-aminopiperidine-1-carbonyl]-3-cyclopropyl-5-methoxyimidazo [1,2-a]pyridin-2-yl]-1-(cyclopropylmethyl)pyrrolo [2,3-b]pyridin-6-yl]ethyl]-3-fluorobicyclo[1.1.1]pentane-1-carboxamide] | 215
COc1cc(C(=O)N2CC[C@H]3OCCN[C@H]3C2)cc2nc(-c3cc4ccc(N(C(F)F)S(C)(=O)=O)nc4n3CC3CC3)c(C)n12 [Example 383, ~{N}-[2-[7-[(4~{a}~{S},8~{a}~{R})-2,3,4,4~{a},5,7,8,8~{a}-octahydropyrido[4,3-b][1,4]oxazine-6-carbonyl]-5-methoxy-3-methylimidazo[1,2-a]pyridin-2-yl]-1-(cyclopropylmethyl)pyrrolo[2,3-b]pyridin-6-yl]-~{N}-(difluoromethyl) methanesulfonamide] | 447
